“And” between values parts separate entries of the source, which are not always exact repeats. Identical values can stand only once. Toxic doses and inconclusive results are not listed. No stated cut-off is given here; in the data, active means T/C of 150% or more; inactive means T/C below 125%.
Tested on: L1210 leukemia ip in BDF1 mice, survival T/C
Test: NCI In Vivo Anticancer Drug Screen. Data for tumor model L1210 Leukemia (intraperitoneal) in B6D2F1 (BDF1) mice
Conditions: endpoint: mean survival time, higher = longer survival
Procedure, shortened: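 In this screen, tumor-bearing mice given compound are compared to those given vehicle, and their survival values are reported as a treated-to-control quotient.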

[1] = dose: 100.0 mg/kg/injection, schedule: Q01DX001 (ip), vehicle: Klucel (hydroxypropylcellulose) (HPC)
[2] = dose: 100.0 mg/kg/injection, schedule: Q04DX003 (ip), vehicle: Klucel (hydroxypropylcellulose) (HPC)
[3] = dose: 100.0 mg/kg/injection, schedule: Q04DX003 (ip), vehicle: saline with Tween-80
[4] = dose: 200.0 mg/kg/injection, schedule: Q04DX003 (ip), vehicle: saline with Tween-80
[5] = dose: 400.0 mg/kg/injection, schedule: Q04DX003 (ip), vehicle: saline with Tween-80
[6] = dose: 100.0 mg/kg/injection, schedule: Q04DX003 (ip), vehicle: saline
[7] = dose: 200.0 mg/kg/injection, schedule: Q04DX003 (ip), vehicle: saline
[8] = dose: 400.0 mg/kg/injection, schedule: Q04DX003 (ip), vehicle: saline
[9] = dose: 200.0 mg/kg/injection, schedule: Q04DX003 (ip), vehicle: Klucel (hydroxypropylcellulose) (HPC)
[10] = dose: 400.0 mg/kg/injection, schedule: Q04DX003 (ip), vehicle: Klucel (hydroxypropylcellulose) (HPC)
[11] = dose: 100.0 mg/kg/injection, schedule: Q01DX009 (ip), vehicle: saline with Tween-80
[12] = dose: 200.0 mg/kg/injection, schedule: Q01DX009 (ip), vehicle: saline with Tween-80
[13] = dose: 400.0 mg/kg/injection, schedule: Q01DX009 (ip), vehicle: saline with Tween-80
[14] = dose: 25.0 mg/kg/injection, schedule: Q01DX009 (ip), vehicle: water
[15] = dose: 25.0 mg/kg/injection, schedule: Q04DX003 (ip), vehicle: saline
[16] = dose: 50.0 mg/kg/injection, schedule: Q04DX003 (ip), vehicle: saline
[17] = dose: 100.0 mg/kg/injection, schedule: Q01DX001 (ip), vehicle: saline

Measured: T/C

Clc1ccccc1C(=Nc1ccccc1)C(=Nc1ccccc1)c1ccccc1Cl
inactive: dose: 12.5 mg/kg/injection, schedule: Q01DX001 (ip), vehicle: Klucel (hydroxypropylcellulose) (HPC) 106 % of control | dose: 25.0 mg/kg/injection, schedule: Q01DX001 (ip), vehicle: Klucel (hydroxypropylcellulose) (HPC) 102 % of control | dose: 25.0 mg/kg/injection, schedule: Q04DX003 (ip), vehicle: Klucel (hydroxypropylcellulose) (HPC) 90 % of control | dose: 50.0 mg/kg/injection, schedule: Q01DX001 (ip), vehicle: Klucel (hydroxypropylcellulose) (HPC) 106 % of control | dose: 50.0 mg/kg/injection, schedule: Q04DX003 (ip), vehicle: Klucel (hydroxypropylcellulose) (HPC) 92 % of control | [1] 88 % of control | [2] 87 % of control | dose: 400.0 mg/kg/injection, schedule: Q01DX001 (ip), vehicle: Klucel (hydroxypropylcellulose) (HPC) 90 % of control

CC(=O)NCC(=O)O
inactive: [1] 113 % of control | dose: 200.0 mg/kg/injection, schedule: Q01DX001 (ip), vehicle: Klucel (hydroxypropylcellulose) (HPC) 95 % of control | dose: 300.0 mg/kg/injection, schedule: Q01DX001 (ip), vehicle: Klucel (hydroxypropylcellulose) (HPC) 94 % of control

CCCCCCCCCCCCCCCCCC[N+](C)(C)C
inactive: dose: 1.0 mg/kg/injection, schedule: Q01DX015 (ip), vehicle: saline 94 % of control | dose: 2.0 mg/kg/injection, schedule: Q01DX015 (ip), vehicle: saline 94 % of control | dose: 3.12 mg/kg/injection, schedule: Q01DX009 (ip), vehicle: saline 94 % of control | dose: 4.0 mg/kg/injection, schedule: Q01DX015 (ip), vehicle: saline 95 % of control | dose: 6.25 mg/kg/injection, schedule: Q01DX009 (ip), vehicle: saline 94 % of control | dose: 12.5 mg/kg/injection, schedule: Q04DX003 (ip), vehicle: saline 87 % of control

COc1cc(OC)c(C(=O)CCl)c(O)c1Cl
inactive: [3] 99 % of control | [4] 104 % of control | [5] 92 % of control

CC1=C(Cl)CS(=O)(=O)C1
inactive: dose: 100.0 mg/kg/injection, schedule: Q01DX001 (ip), vehicle: saline with Tween-80 104 % of control | dose: 200.0 mg/kg/injection, schedule: Q01DX001 (ip), vehicle: saline with Tween-80 100 % of control

CC(=O)N(C)c1ccc(NC(=O)Nc2ccc([N+](=O)[O-])cc2Cl)cc1
inactive: [6] 96 % of control | [7] 95 % of control | [8] 88 % of control

O=C1CCC2(CCC(=O)c3ccccc32)C(=O)N1 (stereo not drawn)
inactive: dose: 50.0 mg/kg/injection, schedule: Q01DX009 (ip), vehicle: Klucel (hydroxypropylcellulose) (HPC) 104 % of control | dose: 100.0 mg/kg/injection, schedule: Q01DX009 (ip), vehicle: Klucel (hydroxypropylcellulose) (HPC) 104 % of control | [2] 93 % of control | dose: 200.0 mg/kg/injection, schedule: Q01DX009 (ip), vehicle: Klucel (hydroxypropylcellulose) (HPC) 104 % of control | [9] 93 % of control | dose: 400.0 mg/kg/injection, schedule: Q01DX009 (ip), vehicle: Klucel (hydroxypropylcellulose) (HPC) 108 % of control | [10] 100 % of control

OC(c1cccc(C(O)(C(F)(F)F)C(F)(F)F)c1)(C(F)(F)F)C(F)(F)F
inactive: dose: 5.0 mg/kg/injection, schedule: Q01DX001 (ip), vehicle: saline 97 % of control | dose: 10.0 mg/kg/injection, schedule: Q01DX001 (ip), vehicle: saline 92 % of control | dose: 20.0 mg/kg/injection, schedule: Q01DX001 (ip), vehicle: saline 100 % of control | dose: 40.0 mg/kg/injection, schedule: Q01DX001 (ip), vehicle: saline 93 % of control

O=C1NCCN1c1ccccn1
inactive: [6] 100 % of control | [7] 97 % of control

CC[N+]1(CC)N=C([O-])N(C)C1=O
inactive: [11] 101 % of control | [12] 101 % of control | [13] 103 % of control

O=C(N=c1cc(-c2ccc(Cl)cc2)ss1)C(Cc1ccccc1)N1C(=O)c2ccccc2C1=O (stereo not drawn)
inactive: [14] 102 % of control | dose: 50.0 mg/kg/injection, schedule: Q01DX009 (ip), vehicle: water 102 % of control | dose: 100.0 mg/kg/injection, schedule: Q01DX009 (ip), vehicle: water 96 % of control | dose: 200.0 mg/kg/injection, schedule: Q01DX009 (ip), vehicle: water 95 % of control | dose: 400.0 mg/kg/injection, schedule: Q01DX009 (ip), vehicle: water 87 % of control

CNC1CC2CCC(C2)C1(O)c1ccccc1 (stereo not drawn)
inactive: [15] 91 % of control | [16] 113 % of control | [17] 100 % of control | [6] 102 % of control

NCCSCC(N)C(=O)O (stereo not drawn)
inactive: dose: 100.0 mg/kg/injection, schedule: Q04DX002 (ip), vehicle: saline 92 % of control | dose: 200.0 mg/kg/injection, schedule: Q04DX002 (ip), vehicle: saline 92 % of control | dose: 400.0 mg/kg/injection, schedule: Q04DX002 (ip), vehicle: saline 109 % of control

C[n+]1ccc(Nc2ccc(NC(=O)c3ccc(N)cc3[N+](=O)[O-])cc2)cc1
inactive: dose: 25.0 mg/kg/injection, schedule: Q01DX001 (ip), vehicle: saline with Tween-80 93 % of control and 107 % of control | dose: 50.0 mg/kg/injection, schedule: Q01DX001 (ip), vehicle: saline with Tween-80 97 % of control | dose: 100.0 mg/kg/injection, schedule: Q04DX002 (ip), vehicle: saline with Tween-80 108 % of control and 117 % of control | dose: 200.0 mg/kg/injection, schedule: Q04DX002 (ip), vehicle: saline with Tween-80 94 % of control and 101 % of control | dose: 400.0 mg/kg/injection, schedule: Q01DX001 (ip), vehicle: saline with Tween-80 104 % of control and 91 % of control | dose: 400.0 mg/kg/injection, schedule: Q04DX002 (ip), vehicle: saline with Tween-80 103 % of control and 114 % of control

CC(=O)c1ccc2c(c1)Cc1ccccc1-2
inactive: [15] 105 % of control | [16] 95 % of control | [17] 90 % of control | [6] 101 % of control | dose: 200.0 mg/kg/injection, schedule: Q01DX001 (ip), vehicle: saline 90 % of control | [7] 96 % of control | dose: 400.0 mg/kg/injection, schedule: Q01DX001 (ip), vehicle: saline 90 % of control | [8] 91 % of control

C/C=C/C(=O)Nc1cccc(OC(=O)NC(C)CC)c1 (stereo not drawn)
inactive: [3] 98 % of control | [4] 87 % of control | [5] 93 % of control

CC(C)(C)OC(=O)C1(c2ccccc2)OC1c1ccccc1 (stereo not drawn)
inactive: [2] 105 % of control | [9] 100 % of control | [10] 96 % of control

CCOC(=O)C(=O)Nc1onc(C)c1NC(=O)C(=O)OCC
inactive: [11] 89 % of control | [12] 89 % of control | [13] 92 % of control

Nc1ccn(CC(=O)c2cccs2)c(=O)n1
inactive: dose: 25.0 mg/kg/injection, schedule: Q01DX009 (ip), vehicle: saline with Tween-80 93 % of control | dose: 50.0 mg/kg/injection, schedule: Q01DX009 (ip), vehicle: saline with Tween-80 98 % of control | [11] 100 % of control and 103 % of control | [3] 94 % of control | [4] 110 % of control

O=C(Nc1ccccc1F)Oc1cccc2ccccc12
inactive: [11] 113 % of control | [12] 109 % of control | [13] 87 % of control

C[n+]1c(-c2ccc(Cl)cc2Cl)c2cc(N)ccc2c2ccccc21
inactive: dose: 3.12 mg/kg/injection, schedule: Q01DX009 (ip), vehicle: water 100 % of control | dose: 6.25 mg/kg/injection, schedule: Q01DX009 (ip), vehicle: water 91 % of control | dose: 12.5 mg/kg/injection, schedule: Q01DX009 (ip), vehicle: water 102 % of control and 105 % of control | dose: 12.5 mg/kg/injection, schedule: Q04DX003 (ip), vehicle: water 100 % of control | [14] 120 % of control and 86 % of control | dose: 25.0 mg/kg/injection, schedule: Q04DX003 (ip), vehicle: water 90 % of control

O=C1N(c2ccccc2)C(c2ccncc2)C1(c1ccccc1)c1ccccc1 (stereo not drawn)
inactive: dose: 87.5 mg/kg/injection, schedule: Q04DX003 (ip), vehicle: gum acacia 91 % of control | dose: 175.0 mg/kg/injection, schedule: Q04DX003 (ip), vehicle: gum acacia 91 % of control | dose: 350.0 mg/kg/injection, schedule: Q04DX003 (ip), vehicle: gum acacia 91 % of control
